The results in this text go back to paper PMC10404663 (The Journal of Biological Chemistry, 2023).

Data set [1] deals with truncated RocR (RocR^trunc, central domain) (Bacillus subtilis, UniProt P38022). The conditions noted are these: 15 mM ATP, 15 mM MgCl2, pH 7.5, room temperature, no effector.
The target of data set [2] is T1, RocB (Bacillus subtilis, UniProt P39635).
T1 sequence (P39635 1-566): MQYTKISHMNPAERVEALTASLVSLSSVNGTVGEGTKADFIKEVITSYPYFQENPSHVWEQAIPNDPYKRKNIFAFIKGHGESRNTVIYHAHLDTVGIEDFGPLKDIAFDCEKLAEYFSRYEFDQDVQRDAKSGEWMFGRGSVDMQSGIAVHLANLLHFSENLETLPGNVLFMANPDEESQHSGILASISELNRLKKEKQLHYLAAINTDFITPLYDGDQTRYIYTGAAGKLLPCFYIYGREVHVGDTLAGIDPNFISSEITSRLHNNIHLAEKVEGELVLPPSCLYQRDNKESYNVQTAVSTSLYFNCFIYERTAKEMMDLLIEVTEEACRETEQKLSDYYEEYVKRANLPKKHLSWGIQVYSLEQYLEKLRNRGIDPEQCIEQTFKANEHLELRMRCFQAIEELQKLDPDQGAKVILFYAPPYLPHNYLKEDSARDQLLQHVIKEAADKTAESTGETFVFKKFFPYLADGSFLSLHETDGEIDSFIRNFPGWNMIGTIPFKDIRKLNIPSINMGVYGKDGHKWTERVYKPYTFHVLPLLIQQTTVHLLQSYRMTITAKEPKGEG
Nature of the data set: coupled RocB-RocD assay, P5C-o-aminobenzaldehyde complex at […] nm. In kind it is biochemical. The conditions noted are these: 2 mM MnCl2, PBS, 25 °C, 1 µM RocD, 10 mM 2-oxoglutarate, 80 µM PLP.

Data set [3] concerns the molecule itself. Nature of the data set: dynamic light scattering.

As for `Nc1ncnc2c1ncn2[C@@H]1O[C@H](COP(=O)(O)OP(=O)(O)OP(=O)(O)O)[C@@H](O)[C@H]1O` [ATP], the kobs result in data set [1] is listed as “the truncated protein was active irrespective of the presence of potential effector molecules”.

Regarding `NC(=O)NCCC[C@H](N)C(=O)O` [citrulline], in data set [2], the KM came out at 7.355 mM l^-1.

B1: RocR, transcription activator of the roc genes (6xHis-RocR) (natural protein, Bacillus subtilis, UniProt P38022 1-461, looked up)
chain: MVKDSEFLTLVFQSILDEIDVGLHVVDEHGNTIVYNNKMMQIEDMEKHDVLNKNLMDVFMFSKQQDSTLVQALQEGKTIKNVKQSYFNNKGQEITTINHTYPIVQDGKIRGAVEIAKDVTKLERLIRENMNKKGSTTYTFDSILGTSPAIQDVIENAKRATRTSSSVLLAGETGTGKELFAQSIHNGSDRSGGPFISQNCAALPDSLVESILFGTKKGAFTGAVDQPGLFEQAHGGTLLLDEINSLNLSLQAKLLRALQERKIRRIGSTKDTPIDVRIIATMNEDPIDAIAGERMRKDLYYRLSVVTLIIPPLRERKEDILLLASEFIQKNNHLFQMNVEHISDDVKQFFLSYDWPGNIRELEHMIEGAMNFMTDEQTITASHLPYQYRMKIKPADIPEPETPRHQPAADLKEKMESFEKYVIENVLRKHGHNISKAAQELGISRQSLQYRLKKFSHSSNE
What is called stoichiometry N is the number of molecules, sites or subunits per partner or assembly. As to B1, the “stoichiometry N” value in data set [3] was roughly 2.
